# Molecular target: T1, EGFR (ErbB1) (Homo sapiens, UniProt P00533)
# T1 construct: purchased Thermo Fisher Scientific (Life Technologies) SelectScreen
# Assay: SelectScreen Z'LYTE
# Type: biochemical
# Summary of the method: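 SelectScreen broad panel; activity (Z'LYTE, Adapta) plus binding formats. ATP: Km app for CSF1R Z'LYTE; 10 for CAMK1 Adapta. Readout = % per kinase.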
# T1 sequence (P00533 25-1210): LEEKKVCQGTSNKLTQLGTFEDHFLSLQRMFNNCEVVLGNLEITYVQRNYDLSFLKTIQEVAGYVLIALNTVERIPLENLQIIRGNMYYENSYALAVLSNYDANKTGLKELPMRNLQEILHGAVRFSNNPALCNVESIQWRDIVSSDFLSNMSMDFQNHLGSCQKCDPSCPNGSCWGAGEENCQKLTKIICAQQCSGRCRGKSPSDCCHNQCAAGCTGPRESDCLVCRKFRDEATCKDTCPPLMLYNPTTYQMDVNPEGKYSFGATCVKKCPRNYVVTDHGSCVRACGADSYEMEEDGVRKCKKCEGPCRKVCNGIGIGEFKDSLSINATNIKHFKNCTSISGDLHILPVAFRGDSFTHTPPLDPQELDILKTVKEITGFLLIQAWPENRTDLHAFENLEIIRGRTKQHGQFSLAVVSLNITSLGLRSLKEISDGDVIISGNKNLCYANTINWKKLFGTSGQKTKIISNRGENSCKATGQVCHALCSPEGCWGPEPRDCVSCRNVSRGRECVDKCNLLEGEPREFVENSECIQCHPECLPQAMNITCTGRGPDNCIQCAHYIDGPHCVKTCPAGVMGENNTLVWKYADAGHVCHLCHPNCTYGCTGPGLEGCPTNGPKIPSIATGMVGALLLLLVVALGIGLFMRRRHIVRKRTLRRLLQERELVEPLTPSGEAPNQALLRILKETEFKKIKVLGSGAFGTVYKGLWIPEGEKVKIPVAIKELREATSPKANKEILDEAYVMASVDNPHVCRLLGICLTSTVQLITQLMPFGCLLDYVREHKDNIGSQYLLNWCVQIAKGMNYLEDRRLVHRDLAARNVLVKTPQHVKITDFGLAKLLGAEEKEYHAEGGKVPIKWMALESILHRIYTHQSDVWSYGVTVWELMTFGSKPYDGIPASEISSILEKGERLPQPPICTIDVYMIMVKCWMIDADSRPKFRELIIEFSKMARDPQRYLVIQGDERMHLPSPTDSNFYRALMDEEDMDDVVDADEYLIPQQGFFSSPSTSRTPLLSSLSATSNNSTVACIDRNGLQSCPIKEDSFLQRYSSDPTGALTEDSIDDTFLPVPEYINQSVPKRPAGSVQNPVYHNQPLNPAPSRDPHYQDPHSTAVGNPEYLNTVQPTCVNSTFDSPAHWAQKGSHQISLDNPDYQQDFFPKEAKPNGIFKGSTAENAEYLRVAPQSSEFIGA
compound,measurement,value
CN(C(=O)CN1CCOCC1)c1ccc2sc3c(-c4cccc5c(=O)cc(N6CC7CCC(C6)O7)oc45)cccc3c2c1 [NU5455],inhibition at 1 µM,6%

# Reference: article PMC6934184, “Selective DNA-PKcs inhibition extends the therapeutic index of localized radiotherapy and chemotherapy” (The Journal of Clinical Investigation, 2019)
